# According to US20150368242A1, “NOVEL TETRAHYDROPYRIDOPYRIMIDINONE DERIVATIVE” (Ajinomoto Co., Inc., priority 2013, published 2015):
# Where a name gives a salt, the structure may show the parent alone. Read-outs that look alike come from different tables or passages of the source.
# Biological target: T1, recombinant human MGAT2 enzyme (Homo sapiens, UniProt Q3SYC2)
# T1 construct: made in house; host or cells: CHO-K1 (Jump-In CHO-K1 Kit, Life Technologies); microsomal fraction used as the enzyme solution
# T1 sequence (Q3SYC2 whole entry): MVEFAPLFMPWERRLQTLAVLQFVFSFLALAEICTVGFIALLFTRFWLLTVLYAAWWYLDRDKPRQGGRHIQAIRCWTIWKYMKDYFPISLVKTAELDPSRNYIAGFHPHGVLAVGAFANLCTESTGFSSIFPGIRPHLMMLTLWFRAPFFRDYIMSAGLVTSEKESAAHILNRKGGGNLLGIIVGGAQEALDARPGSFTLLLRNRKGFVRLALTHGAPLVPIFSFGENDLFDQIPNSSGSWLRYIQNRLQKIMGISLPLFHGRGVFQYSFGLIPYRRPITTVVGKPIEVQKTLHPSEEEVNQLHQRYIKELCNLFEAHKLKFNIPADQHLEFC
# Experiment: Test for human MGAT2 activity inhibitory action (14C-oleoyl CoA, recombinant enzyme microsomes)
# Assay type: biochemical
# Parameters: key to Potency relative to Comparative Example 1 (higher = more potent): % inhibition = {1−(C−B)/(A−B)}×100, B = 10 μM Comparative Example 1
# Details: for IC50: read-out: IC50
# Description: The human MGAT2 gene described in Am. J. Physiol. Endocrinol. Metab. 285: E927-E937, 2003 was expressed using Jump-In™ CHO-K1 Kit (Life technologies) as described in the attached manual. The cells were suspended in a buffer containing Tris-hydrochloric acid (pH 7.4) at a final concentration of 1 mM, 1 mM ethylenediaminetetraacetic acid, 1 mM dithiothreitol, 250 mM sucrose, and complete protease inhibitor cocktail (Roche applied Science), and then disrupted using a Teflon homogenizer (AS ONE Corporation), followed by centrifugation at 130 g for 10 minutes. The supernatant was further centrifuged at 100,000 g for 1 hour to obtain a pellet as microsomes containing the recombinant enzyme, and a solution obtained by suspending this pellet at a protein concentration of about 800 to 1900 μg/ml was used as an MGAT recombinant enzyme solution.
# To a buffer containing 50 mM Tris-hydrochloric acid (pH 7.4), 6 mM magnesium chloride, and 2 mg/mL bovine serum albumin, a test compound was added, and the final concentration of dimethyl sulfoxide was adjusted to 0.3%. Moreover, 2-monooleoyl glycerol, oleoyl CoA, 1-^14C-oleoyl CoA (Perkin Elmer), and orlistat (SIGMA) were added at final concentrations of 50 μM, 50 μM, 2.2 μM, and 8.3 μM, respectively, followed by incubation at 37° C. for 10 minutes. After 10 minutes, the recombinant human MGAT2 enzyme solution was added at a final concentration of 0.67 μg/mL, and the reaction was started, with the amount of the reaction solution being 150 μl. The reaction was carried out at 37° C. for 30 minutes.
# After 30 minutes, the reaction was stopped by adding 300 μl of isopropanol:heptane:water=(80:20:2) to the reaction liquid. Further, 200 μl of heptane and 100 μl of water were added, followed by stirring. Then, 100 μl of the upper layer was transferred to a 96-well plate (Corning), and mixed with 100 μl of liquid scintillator (LumaSafe Plus, Lumac). Then, the ^14C count was quantitatively determined using TopCount NXT™ microplate scintillation luminescence counter (Perkin Elmer).
# The ^14C count in a case where no test compound was added was defined as A, the ^14C count in a case where 10 μM of the compound (Comparative Example 1) of Example No. 8 of WO2008/038768 was added was defined as B, and the ^14C count in the case where the test compound was added was taken as C. For this case, {1−(C−B)/(A−B)}×100(%) was calculated as the human MGAT2 activity inhibition ratio of the test compound (shown in the column named vs Comp. Ex. 1 in the following Table). A greater value of the “vs Comparative Example 1” means that the MGAT2 activity inhibitory action of the compound of Example was higher as compared to the MGAT2 activity inhibitory action of the compound of Comparative Example 1 (i.e., the human MGAT2 activity inhibition ratio was higher). […] Since this evaluation test was conducted for two separate groups, the test results of the two groups are shown separately in Table (First Test) and Table 4 (Second Test).
# Next, the compounds of Examples 25 to 60 of the present invention were also investigated for their pharmacological action by using the same method as in Examples 1 to 24. […] Note that, a comparative evaluation test against the compound of Comparative Example 1 was conducted for each of the compounds of Examples (in every measurement of the inhibitory activity of the compounds of Examples 25 to 60, the inhibitory activity of the compound of Comparative Example 1 was measured). The 50% inhibition concentrations of Comparative Example 1 in the measurement of the inhibitory activities of the compounds of Examples 25 to 60 were shown in Table 5 as “IC50 (nM) of Comparative Example 1.”
# [1] = Second Test (Table 4), relative to Comparative Example 1
# [2] = First Test (Table 3), relative to Comparative Example 1, greater value = higher inhibitory action
# [3] = Table 5, Examples 25 to 60, same method
# [4] = Table 5, relative to Comparative Example 1 measured in the same run
SMILES,IC50 (Second Test (Table 4)),Potency relative to Comparative Example 1 (higher = more potent) [1],IC50 [3],Potency relative to Comparative Example 1 (higher = more potent) [4],other results
"O=C(CCNCc1ccccc1)N1CCc2nc(SC3CCC3)n(C3CCCC3)c(=O)c2C1 [Example 15, 6-[3-(benzylamino)propanoyl]-2-cyclobutylsulfanyl-3-cyclopentyl-7,8-dihydro-5H-pyrido[4,3-d]pyrimidin-4-one trifluoroacetate]",2.4 nM,129,,,
"O=C(CCNCc1cc2ccccc2[nH]1)N1CCc2nc(SC3CCC3)n(-c3ccccc3)c(=O)c2C1 [Example 21, 2-cyclobutylsulfanyl-6-[3-(1H-indol-2-ylmethylamino)propanoyl]-3-phenyl-7,8-dihydro-5H-pyrido[4,3-d]pyrimidin-4-one trifluoroacetate]",1.2 nM,246,,,
"O=C(CCNCc1ccsc1)N1CCc2nc(SC3CCC3)n(-c3ccccc3)c(=O)c2C1 [Example 16, 2-cyclobutylsulfanyl-3-phenyl-6-[3-(3-thienylmeethylamino)propanoyl]-7,8-dihydro-5H-pyrido[4,3-d]pyrimidin-4-one trifluoroacetate]",1.8 nM,173,,,
"[2H]c1c([2H])c([2H])c(-n2c(SC3CCC3)nc3c(c2=O)CN(C(=O)CCNCc2ccccc2)CC3)c([2H])c1[2H] [Example 11, 6-[3-(benzylamino)propanoyl]-2-cyclobutylsulfanyl-3-(2,3,4,5,6-pentadeuteriophenyl)-7,8-dihydro-5H-pyrido[4,3-d]pyrimidin-4-one trifluoroacetate]",1.8 nM,166,,,
"O=C(CNCc1ccc(COc2ccccc2)cc1)N1CCc2nc(SC3CCC3)n(-c3ccccc3)c(=O)c2C1 [Example 7, 2-cyclobutylsulfanyl-6-[2-[[4-(phenoxymethyl)phenyl]methylamino]acetyl]-3-phenyl-7,8-dihydro-5H-pyrido[4,3-d]pyrimidin-4-one trifluoroacetate]",,,,,IC50 (First Test (Table 3)): 2.3 nM; Potency relative to Comparative Example 1 (higher = more potent) [2]: 75
"O=C(CCNCCCCCOc1ccc(F)cc1)N1CCc2nc(SC3CCC3)n(-c3ccccc3)c(=O)c2C1 [Example 49, 2-cyclobutylsulfanyl-6-[3-[5-(4-fluorophenoxy)pentylamino]propanoyl]-3-phenyl-7,8-dihydro-5H-pyrido[4,3-d]pyrimidin-4-one trifluoroacetate]",,,< 1 nM,>184,
"O=C(CCNCc1ccc2c(c1)OCO2)N1CCc2nc(SC3CCC3)n(-c3ccccc3)c(=O)c2C1 [Example 28, 6-[3-(1,3-benzodioxol-5-ylmethylamino)propanoyl]-2-cyclobutylsulfanyl-3-phenyl-7,8-dihydro-5H-pyrido[4,3-d]pyrimidin-4-one trifluoroacetate]",,,1.7 nM,125,
"O=C(CCNCCCCCOc1ccc(C(F)(F)F)cc1)N1CCc2nc(SC3CCC3)n(-c3ccccc3)c(=O)c2C1 [Example 33, 2-cyclobutylsulfanyl-3-phenyl-6-[3-[5-[4-(trifluoromethyl)phenoxy]pentylamino]propanoyl]-7,8-dihydro-5H-pyrido[4,3-d]pyrimidin-4-one trifluoroacetate]",,,0.8 nM,228,
"O=C(CCNCC#CCOc1ccc(C(F)(F)F)cc1)N1CCc2nc(SC3CCC3)n(-c3ccccc3)c(=O)c2C1 [Example 59, 2-cyclobutylsulfanyl-3-phenyl-6-[3-[4-[4-(trifluoromethyl)phenoxy]but-2-ynylamino]propanoyl]-7,8-dihydro-5H-pyrido[4,3-d]pyrimidin-4-one trifluoroacetate]",,,2.2 nM,117,
"O=C(CCNCCc1c[nH]c2ccccc12)N1CCc2nc(SC3CCC3)n(-c3ccccc3)c(=O)c2C1 [Example 23, 2-cyclobutylsulfanyl-6-[3-[2-(1H-indol-3-yl)ethylamino]propanoyl]-3-phenyl-7,8-dihydro-5H-pyrido[4,3-d]pyrimidin-4-one trifluoroacetate)]",1.6 nM,193,,,
"O=C(CCNCC(O)COc1ccc(Cl)cc1)N1CCc2nc(SC3CCC3)n(-c3ccccc3)c(=O)c2C1 (centres unmarked) [Example 45, 6-[3-[[3-(4-chlorophenoxy)-2-hydroxy-propyl]amino]propanoyl]-2-cyclobutylsulfanyl-3-phenyl-7,8-dihydro-5H-pyrido[4,3-d]pyrimidin-4-one trifluoroacetate]",,,1.3 nM,,
"O=C(CNCCCCCOC1CCCCC1)N1CCc2nc(SC3CCC3)n(-c3ccccc3)c(=O)c2C1 [Example 57, 2-cyclobutylsulfanyl-6-[2-[5-(cyclohexoxy)pentylamino]acetyl]-3-phenyl-7,8-dihydro-5H-pyrido[4,3-d]pyrimidin-4-one trifluoroacetate]",,,2.6 nM,81,
"O=C(CCCNCc1ccc(C(F)(F)F)cc1)N1CCc2nc(SC3CCC3)n(-c3ccccc3)c(=O)c2C1 [Example 22, 2-cyclobutylsulfanyl-3-phenyl-6-[4-[[4-trifluoromethyl)phenyl]methylamino]butanoyl]-7,8-dihydro-5H-pyrido[4,3-d]pyrimidin-4-one trifluoroacetate]",3.8 nM,79,,,
"O=C(CCNCCCCOc1ccc(F)cc1)N1CCc2nc(SC3CCC3)n(-c3ccccc3)c(=O)c2C1 [Example 48, 2-cyclobutylsulfanyl-6-[3-[4-(4-fluorophenoxy)butylamino]propanoyl]-3-phenyl-7,8-dihydro-5H-pyrido[4,3-d]pyrimidin-4-one trifluoroacetate]",,,< 1 nM,>184,
"O=C(CCNCC1CCCC(C(F)(F)F)C1)N1CCc2nc(SC3CCC3)n(-c3ccccc3)c(=O)c2C1 (centres unmarked) [Example 39, 2-cyclobutylsulfanyl-3-phenyl-6-[3-[[3-(trifluoromethyl)cyclohexyl]methylamino]propanoyl]-7,8-dihydro-5H-pyrido[4,3-d]pyrimidin-4-one trifluoroacetate]",,,0.4 nM,320,
"O=C(CNCCCCCOc1ccc(F)cc1)N1CCc2nc(SC3CCC3)n(-c3ccccc3)c(=O)c2C1 [Example 53, 2-cyclobutylsulfanyl-6-[2-[5-(4-fluorophenoxy)pentylamino]acetyl]-3-phenyl-7,8-dihydro-5H-pyrido[4,3-d]pyrimidin-4-one trifluoroacetate]",,,2 nM,133,
"O=C(CNCc1ccc(Oc2cccc(C(F)(F)F)c2)cc1)N1CCc2nc(SC3CCC3)n(-c3ccccc3)c(=O)c2C1 [Example 54, 2-cyclobutylsulfanyl-3-phenyl-6-[2-[[4-[3-(trifluoromethyl)phenoxy]phenyl]methylamino]acetyl]-7,8-dihydero-5H-pyrido[4,3-d]pyrimidin-4-one trifluoroacetate]",,,2.6 nM,91,
"O=C(CNCc1cccc(Cl)c1)N1CCc2nc(SC3CCC3)n(-c3ccccc3)c(=O)c2C1 [Example 4, 6-[2-[(3-chlorophenyl)methylamino]acetyl]-2-cyclobutylsulfanyl-3-phenyl-7,8-dihydro-5H-pyrido 4,3-[d]pyrimidin-4-one trifluoroacetate]",,,,,IC50 (First Test (Table 3)): 2.9 nM; Potency relative to Comparative Example 1 (higher = more potent) [2]: 77
